Results from US12534469B2 (CHILDREN'S HOSPITAL MEDICAL CENTER, priority 2020, dated 2026).

Key:
IRAK4 = molecular target: T1, IRAK4 (Homo sapiens, UniProt Q9NWZ3); assay: RBC HotSpot Kinase Assay, IRAK4; type: biochemical; design: purchased Reaction Biology (RBC HotSpot Kinase Assay)
T1 sequence (Q9NWZ3 1-460): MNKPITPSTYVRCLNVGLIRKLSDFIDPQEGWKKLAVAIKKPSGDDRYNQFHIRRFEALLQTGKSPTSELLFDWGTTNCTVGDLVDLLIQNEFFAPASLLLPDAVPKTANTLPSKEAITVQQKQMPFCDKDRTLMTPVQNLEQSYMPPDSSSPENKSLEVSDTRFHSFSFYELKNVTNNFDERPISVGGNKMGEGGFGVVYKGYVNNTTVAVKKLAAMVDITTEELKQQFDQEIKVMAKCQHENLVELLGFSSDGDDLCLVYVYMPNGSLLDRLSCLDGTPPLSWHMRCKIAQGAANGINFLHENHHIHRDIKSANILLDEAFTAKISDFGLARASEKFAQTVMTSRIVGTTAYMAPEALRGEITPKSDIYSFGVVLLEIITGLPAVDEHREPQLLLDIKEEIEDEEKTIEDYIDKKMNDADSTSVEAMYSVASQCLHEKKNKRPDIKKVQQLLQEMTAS
Outline: (§1)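 Radiometric filter-binding (HotSpot) activity assay on isolated recombinant kinase, possibly truncated or catalytic domain only, in 20 mM Hepes pH 7.5, 10 mM MgCl2, 1 mM EGTA, 2 mM DTT, 1% DMSO. Compound preincubated 20 min with kinase and substrate, then ^33P-ATP added. Reaction 2 h at room temperature, read by P81 filter binding.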

FLT3 = molecular target: T2, FLT3 (Homo sapiens, UniProt P36888); assay: RBC HotSpot Kinase Assay, FLT3; type: biochemical
T2 construct: purchased Reaction Biology (RBC HotSpot Kinase Assay)
T2 sequence (P36888 564-958 limits assumed): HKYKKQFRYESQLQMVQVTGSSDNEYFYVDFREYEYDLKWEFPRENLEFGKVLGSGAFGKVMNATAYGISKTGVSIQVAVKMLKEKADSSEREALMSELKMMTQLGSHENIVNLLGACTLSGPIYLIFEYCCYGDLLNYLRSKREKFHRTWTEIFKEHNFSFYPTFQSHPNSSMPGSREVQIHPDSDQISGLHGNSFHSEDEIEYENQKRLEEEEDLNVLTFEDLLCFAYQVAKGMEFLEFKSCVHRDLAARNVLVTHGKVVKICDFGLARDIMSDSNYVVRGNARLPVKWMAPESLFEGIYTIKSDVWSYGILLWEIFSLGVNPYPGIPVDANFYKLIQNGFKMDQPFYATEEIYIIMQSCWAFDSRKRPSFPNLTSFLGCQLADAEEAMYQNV
Outline: as §1

IRAK1 = molecular target: T3, IRAK1 (Homo sapiens, UniProt P51617); assay: RBC HotSpot Kinase Assay, IRAK1; type: biochemical
T3 construct: purchased Reaction Biology (RBC HotSpot Kinase Assay)
T3 sequence (P51617 whole entry): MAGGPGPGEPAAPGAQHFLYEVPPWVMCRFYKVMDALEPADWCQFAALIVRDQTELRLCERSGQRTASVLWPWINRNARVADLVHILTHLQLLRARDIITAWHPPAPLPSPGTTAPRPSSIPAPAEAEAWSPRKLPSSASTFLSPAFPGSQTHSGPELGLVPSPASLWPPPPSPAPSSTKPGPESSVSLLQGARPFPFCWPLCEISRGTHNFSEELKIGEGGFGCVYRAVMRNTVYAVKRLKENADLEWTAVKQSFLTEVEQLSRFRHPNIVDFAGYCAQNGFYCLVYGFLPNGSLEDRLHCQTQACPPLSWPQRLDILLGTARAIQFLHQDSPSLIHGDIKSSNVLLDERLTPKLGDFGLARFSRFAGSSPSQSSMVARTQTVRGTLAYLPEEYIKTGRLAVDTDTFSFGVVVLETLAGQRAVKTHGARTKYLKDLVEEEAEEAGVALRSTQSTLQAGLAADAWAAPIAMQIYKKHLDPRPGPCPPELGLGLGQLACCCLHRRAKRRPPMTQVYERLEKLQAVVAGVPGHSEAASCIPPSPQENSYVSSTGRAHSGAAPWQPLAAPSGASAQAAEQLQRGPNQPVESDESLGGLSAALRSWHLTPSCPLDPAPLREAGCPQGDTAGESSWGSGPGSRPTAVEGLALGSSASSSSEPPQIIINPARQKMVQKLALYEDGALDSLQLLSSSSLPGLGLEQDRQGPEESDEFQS
Outline: as §1

MOLM14 D835Y cells = assay: MOLM14 D835Y cell viability assay (Cell Titer Glo); type: cell-based
Description: (§2) Both cell lines have activated FLT3 receptors, each of which carry additional resistance mutations in the kinase domain (D835Y and F691L, respectively).
(§3) MOLM14 D835Y and MOLM14 F691L cells were grown in RPMI-1640 media supplemented with 20% fetal bovine serum (FBS). For viability/cytotoxicity assessments, cells were seeded into 1536-well white polystyrene tissue culture-treated Greiner plates using a Multidrop Combi dispenser (ThermoFisher), in final volume 5 μL of growth media per well, at a density of 1000 cells per well. After cell addition, 23 nL of test compound were transferred into individual wells (22 doses tested for each test compound, with a 1:2 dilution series starting at 10 μM) via a 1536 pin-tool. Bortezomib (final concentration 2.3 μM) was used as a positive control for cell cytotoxicity. Plates were incubated for 48 hours at standard incubator conditions covered by a stainless steel gasketed lid to prevent evaporation. 48 hours post compound addition, 3 μL of Cell Titer Glo (Promega) were added to each well and plates were incubated at room temperature for 15 minutes with the stainless-steel lid in place. Luminescence readings were taken using a Viewlux imager (PerkinElmer) with a 2 second exposure time per plate.

MOLM14 F691L cells = assay: MOLM14 F691L cell viability assay (Cell Titer Glo); type: cell-based
Description: as §2, §3

| IC50 (IRAK4) [nM] | IC50 (FLT3) [nM] | IC50 (IRAK1) [nM] | IC50 (MOLM14 D835Y cells; Homo sapiens, MOLM-14, 48 h) [nM] | IC50 (MOLM14 D835Y cells; 48 hours) [nM] | IC50 (MOLM14 F691L cells; 48 hours) [nM] | IC50 (MOLM14 F691L cells; Homo sapiens, MOLM-14, 48 h) [nM] | Compound |
| --- | --- | --- | --- | --- | --- | --- | --- |
| 18 | 1 | 595 | 357 |  |  |  | COc1cc2ncc(-c3cccc(N[C@H]4CNC[C@@H]4F)n3)n2nc1C1(C(F)(F)F)CC1 [Compound 82, N-((3S,4S)-4-fluoropyrrolidin-3-yl)-6-(7-methoxy-6-(1-(trifluoromethyl)cyclopropyl)imidazo[1,2-b]pyridazin-3-yl)pyridin-2-amine] |
| 183 | < 0.5 | 8640 |  | 244 | 1720 |  | COc1cc2ncc(-c3cccc(N[C@H]4CNCC[C@@H]4F)n3)n2nc1C(C)(O)C(F)(F)F (single isomer, unassigned; fast-eluting) [Compound 134] |
| < 0.5 | < 0.5 | 1380 | 20 |  |  |  | COc1cc2ncc(-c3cccc(N[C@H]4CNCC45CC5)n3)n2nc1C1CC1 [Compound 100, (R)-N-(6-(6-cyclopropyl-7-methoxyimidazo[1,2-b]pyridazin-3-yl)pyridin-2-yl)-5-azaspiro[2.4]heptan-7-amine] |
| 25 | 2 | 954 | 591 |  |  |  | COc1cc2ncc(-c3cccc(N[C@@H]4CCNC4)n3)n2nc1C1(C(F)(F)F)CC1 [Compound 81, (R)-6-(7-methoxy-6-(1-(trifluoromethyl)cyclopropyl)imidazo[1,2-b]pyridazin-3-yl)-N-(pyrrolidin-3-yl)pyridin-2-amine] |
| 399 | 9 | > 10000 | 968 |  |  |  | F[C@H]1CNC[C@@H]1Nc1cccc(-c2cnc3cccnn23)n1 [Compound 109, N-((3S,4S)-4-fluoropyrrolidin-3-yl)-6-(imidazo[1,2-b]pyridazin-3-yl)pyridin-2-amine] |
| 13 | 0.6 | 331 | 60 |  |  | 1680 | Cn1cc(-c2ccc3ncc(-c4cccc(N[C@H]5CNC[C@@H]5F)n4)n3n2)cn1 [Compound 1, N-((3S,4S)-4-fluoropyrrolidin-3-yl)-6-(6-(1-methyl-1H-pyrazol-4-yl)imidazo[1,2-b]pyridazin-3-yl)pyridin-2-amine] |
| 7 | < 0.5 | 272 | 231 |  |  | 1220 | COc1cc2ncc(-c3cc(F)cc(N[C@H]4CNCC[C@@H]4F)n3)n2nc1C1CC1 [Compound 105, 6-(6-cyclopropyl-7-methoxyimidazo[1,2-b]pyridazin-3-yl)-4-fluoro-N-((3S,4S)-4-fluoropiperidin-3-yl)pyridin-2-amine] |
| 169 | < 0.5 | > 10000 |  | 386 | 4330 |  | COc1cc2ncc(-c3cccc(N[C@H]4CNC[C@@H]4F)n3)n2nc1C(C)(O)C(F)(F)F (single isomer, unassigned; slow-eluting) [Compound 135] |
| 37 | 0.7 | 537 | 49 |  |  | 686 | COc1cc2ncc(-c3cccc(N[C@H]4CNCC[C@@H]4F)n3)n2nc1-c1cnn(C)c1 [Compound 122, N-((3S,4S)-4-fluoropiperidin-3-yl)-6-(7-methoxy-6-(1-methyl-1H-pyrazol-4-yl)imidazo[1,2-b]pyridazin-3-yl)pyridin-2-amine] |
| 94 | 3 | 3470 | 326 |  |  |  | FC(F)COc1cnn2c(-c3cccc(N[C@H]4CNC[C@@H]4F)n3)cnc2c1 [Compound 114, 6-(7-(2,2-difluoroethoxy)imidazo[1,2-b]pyridazin-3-yl)-N-((3S,4S)-4-fluoropyrrolidin-3-yl)pyridin-2-amine] |
| < 0.5 | < 0.5 | 85 | 20 |  |  | 275 | COc1cc2ncc(-c3cccc(N[C@H]4CNCC[C@@H]4F)n3)n2nc1-c1cn[nH]c1 [Compound 120, N-((3S,4S)-4-fluoropiperidin-3-yl)-6-(7-methoxy-6-(1H-pyrazol-4-yl)imidazo[1,2-b]pyridazin-3-yl)pyridin-2-amine] |
| 424 | < 0.5 | 8200 |  | 69 | 545 |  | COc1cc2ncc(-c3cccc(N[C@@H]4CCCNC4)n3)n2nc1C(C)(O)C(F)(F)F (single isomer, unassigned) [Compound 131] |
| 131 | 4 | 774 | 1010 |  |  |  | F[C@H]1CNC[C@@H]1Nc1cccc(-c2cnc3cc(C4CC4)cnn23)n1 [Compound 111, 6-(7-cyclopropylimidazo[1,2-b]pyridazin-3-yl)-N-((3S,4S)-4-fluoropyrrolidin-3-yl)pyridin-2-amine] |
| 11 | < 0.5 | 2320 |  |  |  | 596 | COc1cc2ncc(-c3cccc(N[C@@H]4CCCNC4)n3)n2nc1C1CC1 [Compound 101] |
| 4 | < 0.5 | 383 | 109 |  |  | 1370 | COc1cc2ncc(-c3cccc(N[C@@H]4CCCNC4)n3)n2nc1C(F)F [Compound 117, (R)-6-(6-(difluoromethyl)-7-methoxyimidazo[1,2-b]pyridazin-3-yl)-N-(piperidin-3-yl)pyridin-2-amine] |
| 190 | 6 | 3710 | 591 |  |  |  | F[C@H]1CNC[C@@H]1Nc1cccc(-c2cnc3cc(Cl)cnn23)n1 [Compound 110, 6-(7-chloroimidazo[1,2-b]pyridazin-3-yl)-N-((3S,4S)-4-fluoropyrrolidin-3-yl)pyridin-2-amine] |
| < 0.5 | < 0.5 | 3 | 333 |  |  |  | F[C@H]1CNCC[C@@H]1Nc1cccc(-c2cnc3ccc(-c4cnn5ccccc45)nn23)n1 [Compound 20, N-((3S,4S)-3-fluoropiperidin-4-yl)-6-(6-(pyrazolo[1,5-a]pyridin-3-yl)imidazo[1,2-b]pyridazin-3-yl)pyridin-2-amine] |
|  | < 0.5 | 1140 | 154 |  |  | 2170 | COc1cc2ncc(-c3cccc(N[C@H]4CNCC[C@@H]4F)n3)n2nc1-c1cnn(C(F)F)c1 [Compound 129, 6-(6-(1-(difluoromethyl)-1H-pyrazol-4-yl)-7-methoxyimidazo[1,2-b]pyridazin-3-yl)-N-((3S,4S)-4-fluoropiperidin-3-yl)pyridin-2-amine] |
| 25 | 0.8 | 3670 | 259 |  |  |  | COc1cc2ncc(-c3cccc(N[C@H]4CNC[C@@H]4C)n3)n2nc1C1(C(F)(F)F)CC1 [Compound 83, 6-(7-methoxy-6-(1-(trifluoromethyl)cyclopropyl)imidazo[1,2-b]pyridazin-3-yl)-N-((3R,4S)-4-methylpyrrolidin-3-yl)pyridin-2-amine] |
| 83 | 1 | 536 | 179 |  |  |  | COc1cc2ncc(-c3cccc(N[C@@H]4CCCNC4)n3)n2nc1C1(C(F)(F)F)CC1 [Compound 84, (R)-6-(7-methoxy-6-(1-(trifluoromethyl)cyclopropyl)imidazo[1,2-b]pyridazin-3-yl)-N-(piperidin-3-yl)pyridin-2-amine] |
|  | < 0.5 | 734 |  | 137 | 1370 |  | COc1cc2ncc(-c3cccc(N[C@H]4CNCC[C@@H]4F)n3)n2nc1-c1cnn(C(F)F)c1 [Compound 130, 6-(6-(1-(difluoromethyl)-1H-pyrazol-4-yl)-7-methoxyimidazo[1,2-b]pyridazin-3-yl)-N-((3S,4S)-4-fluoropiperidin-3-yl)pyridin-2-amine] |
